System: rats subjected to sTBI
Assay: sTBI rats, LMW-DS 1, 5, 15 mg/kg s.c. 30 min post-TBI: HPLC of brain energy metabolites, antioxidants, oxidative/nitrosative stress biomarkers (Example 4)
Assay type: in vivo, rat
Method: Male Wistar rats (n=160) of 300-350 g body weight were used in this study. They were fed with standard laboratory diet and water ad libitum in a controlled environment.
As the accepted anesthetic mixture, animals received 35 mg/kg b.w. ketamine and 0.25 mg/kg body weight midazolam by intramuscular injection. Diffuse sTBI was induced according to the “weight drop” impact acceleration model set up by Marmarou et al. J. Neurosurg. 1994, 80: 291-300. This model causes diffuse axonal injury and it is able to reproduce the physical and mechanical characteristics of the diffuse TBI in humans.
Severe TBI was induced by dropping a 450 g weight from 2 meters height onto the rat head protected by a helmet (metal disk previously fixed on the skull using dental cement) in order to uniformly distribute the mechanical force to the brain. Rats were placed prone on a bed of specific polyurethane foam inserted in a special container; this foam dissipates the major part of the potential energy (deriving from the mechanical forces) and prevents any rebound of the animal after the impact that could produce spinal damages.
After 2 or 7 days from TBI induction, rats were anesthetized again and then immediately sacrificed. These time points are coincident with the worst biochemical derangement (2 days) or, in the case of a mildly injured brain, with a full metabolic recovery (7 days).
The drug treatment consisted in a subcutaneous injection of 0.5 ml of LMW-DS (ILB®, Tikomed, Viken, Sweden, WO 2016/076780) and administered at 3 different concentrations (1, 5 and 15 mg/kg body weight), according to the schematic protocol described below. Sham-operated animals underwent the same procedure of anesthesia but TBI and were used as the control group.
(§1) Rats subjected to sTBI and receiving a single administration of LMW-DS after 30 minutes post-TBI, with sacrifice at 2 days post-TBI. Animals were divided in the following subgroups: • 1. 12 animals subjected to sTBI and treated with 1 mg/kg b.w. LMW-DS • 2. 12 animals subjected to sTBI and treated with 5 mg/kg b.w. LMW-DS • 3. 12 animals subjected to sTBI and treated with 15 mg/kg b.w. LMW-DS
as §1, with “at 7” for “at 2”
Rats (n = 12) subjected to sTBI and receiving repeated administrations of the maximal dose of LMW-DS (15 mg/kg b.w.) after 30 minutes, 3 days and 5 days post-TBI, with sacrifice at 7 days post-TBI. Four additional rats were used for the histo-morphological studies. Total rats in this group: n=16
To minimize metabolite loss, an in vivo craniectomy was performed in all animals during anesthesia. The rat skull was carefully removed, the brain was exposed, sharply cut along the sagittal fissure and the two hemispheres were separated. The hemispheres dedicated to biochemical analyses were freeze-clamped by aluminum tongues pre-cooled in liquid nitrogen and then immersed in liquid nitrogen. The freeze-clamping procedure was introduced to accelerate freezing of the tissue, thus minimizing potential metabolite loss.
Tissue homogenization for metabolite analyses was effected as described below. After the wet weight (w.w.) determination, the frozen hemispheres were placed into 7 ml of ice-cold, nitrogen-saturated, precipitating solution (1:10 w/v) composed by CH3CN + 10 mM KH2PO4, pH 7.40, (3:1; v:v), and the homogenization was performed using an Ultra-Turrax homogenizer set at 24,000 rpm/min (Janke & Kunkel, Staufen, Germany). […]

[1] = 1 mg/kg, 7 d post-sTBI, adimensional ratio

## sodium salt of dextran sulfate [LMW-DS]
1 mg/kg, 2 d post-sTBI
  ADENOSINE: 68.91 ± 16.50 nmol/g w.w.
  ADP: 333.90 ± 28.72 nmol/g w.w.
  ADP-Ribose: 25.69 ± 5.16 nmol/g w.w.
  AMP: 62.04 ± 7.46 nmol/g w.w.
  ASCORBIC ACID: 2567.35 ± 147.76 nmol/g w.w.
  ATP: 1696.96 ± 99.43 nmol/g w.w.
  Acetyl-CoA: 27.74 ± 3.23 nmol/g w.w.
  CDP choline: 8.23 ± 1.22 nmol/g w.w.
  CMP: 29.39 ± 6.00 nmol/g w.w.
  CREATININE: 17.66 ± 3.29 nmol/g w.w.
  CTP: 33.01 ± 7.63 nmol/g w.w.
  CYTIDINE: 13.79 ± 2.49 nmol/g w.w.
  CYTOSINE: 13.47 ± 1.65 nmol/g w.w.
  CoA-SH: 9.42 ± 1.04 nmol/g w.w.
  GDP: 189.85 ± 26.23 nmol/g w.w.
  GDP Glucose: 65.66 ± 41.61 nmol/g w.w.
  GMP: 205.06 ± 25.74 nmol/g w.w.
  GSH: 2337.06 ± 340.81 nmol/g w.w.
  GTP: 169.98 ± 17.93 nmol/g w.w.
  GUANINE: 1.62 ± 0.41 nmol/g w.w.
  GUANOSINE: 16.46 ± 2.73 nmol/g w.w.
  HYPOXANTHINE: 4.02 ± 0.66 nmol/g w.w.
  IMP: 45.97 ± 8.65 nmol/g w.w.
  INOSINE: 113.85 ± 14.84 nmol/g w.w.
  MDA: 44.00 ± 7.17 nmol/g w.w.
  Malonyl-CoA: 19.06 ± 4.04 nmol/g w.w.
  NADH: 9.42 ± 1.38 nmol/g w.w.
  NADPH: 13.07 ± 1.09 nmol/g w.w.
  NADP^+: 11.79 ± 2.70 nmol/g w.w.
  NAD^+: 325.87 ± 55.47 nmol/g w.w.
  NO2: 158.36 ± 19.08 nmol/g w.w.
  NO3: 99.16 ± 21.58 nmol/g w.w.
  UDP: 83.06 ± 8.52 nmol/g w.w.
  UDP-Gal: 118.50 ± 9.89 nmol/g w.w.
  UDP-GalNac: 21.24 ± 3.13 nmol/g w.w.
  UDP-Glc: 45.14 ± 6.68 nmol/g w.w.
  UDP-GlcNac: 96.62 ± 8.80 nmol/g w.w.
  UMP: 148.04 ± 20.45 nmol/g w.w.
  URACIL: 17.18 ± 3.36 nmol/g w.w.
  URIC ACID: 52.42 ± 10.75 nmol/g w.w.
  URIDINE: 79.93 ± 14.07 nmol/g w.w.
  UTP: 104.07 ± 16.34 nmol/g w.w.
  XANTHINE: 13.79 ± 1.43 nmol/g w.w.
  β-PSEUDOURIDINE: 11.64 ± 2.3 nmol/g w.w.
1 mg/kg, 2 d post-sTBI, adimensional ratio
  NAD^+/NADH: 33.91 ± 9.32
1 mg/kg, 7 d post-sTBI
  ADENOSINE: 26.08 ± 19.31 nmol/g w.w.
  ADP: 286.78 ± 38.19 nmol/g w.w.
  ADP-Ribose: 7.95 ± 1.99 nmol/g w.w.
  AMP: 43.13 ± 3.39 nmol/g w.w.
  ASCORBIC ACID: 2177.22 ± 262.21 nmol/g w.w.
  ATP: 1792.01 ± 144.16 nmol/g w.w.
  Acetyl-CoA: 27.05 ± 4.61 nmol/g w.w.
  CDP choline: 6.26 ± 2.01 nmol/g w.w.
  CMP: 25.41 ± 10.81 nmol/g w.w.
  CREATININE: 6.57 ± 1.16 nmol/g w.w.
  CTP: 81.75 ± 31.55 nmol/g w.w.
  CYTIDINE: 29.67 ± 10.44 nmol/g w.w.
  CYTOSINE: 16.03 ± 3.44 nmol/g w.w.
  CoA-SH: 38.50 ± 4.94 nmol/g w.w.
  GDP: 121.72 ± 13.91 nmol/g w.w.
  GDP Glucose: 112.22 ± 13.13 nmol/g w.w.
  GMP: 113.06 ± 53.51 nmol/g w.w.
  GSH: 1627.30 ± 214.51 nmol/g w.w.
  GTP: 438.65 ± 39.88 nmol/g w.w.
  GUANINE: 6.86 ± 2.92 nmol/g w.w.
  GUANOSINE: 19.11 ± 3.98 nmol/g w.w.
  HYPOXANTHINE: 16.97 ± 4.94 nmol/g w.w.
  IMP: 80.16 ± 20.53 nmol/g w.w.
  INOSINE: 124.27 ± 13.94 nmol/g w.w.
  MDA: 32.98 ± 5.44 nmol/g w.w.
  Malonyl-CoA: 5.43 ± 0.98 nmol/g w.w.
  NADH: 8.20 ± 1.41 nmol/g w.w.
  NADPH: 18.91 ± 4.39 nmol/g w.w.
  NADP^+: 39.94 ± 14.65 nmol/g w.w.
  NAD^+: 268.14 ± 37.97 nmol/g w.w.
  NO2: 93.04 ± 20.16 nmol/g w.w.
  NO3: 153.62 ± 26.24 nmol/g w.w.
  UDP: 38.59 ± 5.43 nmol/g w.w.
  UDP-Gal: 130.20 ± 8.95 nmol/g w.w.
  UDP-GalNac: 15.85 ± 4.54 nmol/g w.w.
  UDP-Glc: 63.19 ± 12.84 nmol/g w.w.
  UDP-GlcNac: 85.36 ± 29.53 nmol/g w.w.
  UMP: 103.06 ± 19.96 nmol/g w.w.
  URACIL: 14.78 ± 3.04 nmol/g w.w.
  URIC ACID: 7.13 ± 1.70 nmol/g w.w.
  URIDINE: 110.17 ± 26.11 nmol/g w.w.
  UTP: 179.75 ± 31.48 nmol/g w.w.
  XANTHINE: 12.53 ± 3.54 nmol/g w.w.
  β-PSEUDOURIDINE: 14.00 ± 2.60 nmol/g w.w.
[1]
  ATP/ADP: 6.12 ± 0.78
  NAD+/NADH: 33.91 ± 9.32
5 mg/kg, 2 d post-sTBI
  ADENOSINE: 92.58 ± 22.16 nmol/g w.w.
  ADP: 364.92 ± 31.39 nmol/g w.w.
  ADP-Ribose: 21.65 ± 4.35 nmol/g w.w.
  AMP: 67.03 ± 11.85 nmol/g w.w.
  ASCORBIC ACID: 2626.68 ± 151.17 nmol/g w.w.
  ATP: 1683.87 ± 98.66 nmol/g w.w.
  Acetyl-CoA: 34.85 ± 4.05 nmol/g w.w.
  CDP choline: 5.16 ± 0.77 nmol/g w.w.
  CMP: 28.94 ± 5.91 nmol/g w.w.
  CREATININE: 10.22 ± 1.90 nmol/g w.w.
  CTP: 37.72 ± 7.63 nmol/g w.w.
  CYTIDINE: 7.47 ± 1.35 nmol/g w.w.
  CYTOSINE: 13.65 ± 1.67 nmol/g w.w.
  CoA-SH: 7.46 ± 0.82 nmol/g w.w.
  GDP: 183.27 ± 25.32 nmol/g w.w.
  GDP Glucose: 83.81 ± 37.35 nmol/g w.w.
  GMP: 167.44 ± 8.47 nmol/g w.w.
  GSH: 2067.79 ± 301.54 nmol/g w.w.
  GTP: 180.01 ± 18.99 nmol/g w.w.
  GUANINE: 1.68 ± 0.42 nmol/g w.w.
  GUANOSINE: 30.97 ± 5.15 nmol/g w.w.
  HYPOXANTHINE: 4.18 ± 0.68 nmol/g w.w.
  IMP: 33.19 ± 6.25 nmol/g w.w.
  INOSINE: 114.89 ± 14.98 nmol/g w.w.
  MDA: 32.73 ± 5.33 nmol/g w.w.
  Malonyl-CoA: 35.58 ± 7.54 nmol/g w.w.
  NADH: 10.37 ± 1.19 nmol/g w.w.
  NADPH: 37.48 ± 3.11 nmol/g w.w.
  NADP^+: 11.86 ± 2.71 nmol/g w.w.
  NAD^+: 376.85 ± 64.15 nmol/g w.w.
  NO2: 218.12 ± 26.28 nmol/g w.w.
  NO3: 148.41 ± 32.30 nmol/g w.w.
  UDP: 70.93 ± 7.27 nmol/g w.w.
  UDP-Gal: 116.42 ± 9.72 nmol/g w.w.
  UDP-GalNac: 20.75 ± 3.06 nmol/g w.w.
  UDP-Glc: 28.60 ± 4.23 nmol/g w.w.
  UDP-GlcNac: 140.58 ± 12.80 nmol/g w.w.
  UMP: 97.98 ± 13.53 nmol/g w.w.
  URACIL: 17.83 ± 3.48 nmol/g w.w.
  URIC ACID: 11.22 ± 2.30 nmol/g w.w.
  URIDINE: 117.21 ± 20.64 nmol/g w.w.
  UTP: 142.82 ± 22.43 nmol/g w.w.
  XANTHINE: 6.71 ± 0.70 nmol/g w.w.
  β-PSEUDOURIDINE: 10.41 ± 2.09 nmol/g w.w.
5 mg/kg, 2 d post-sTBI, adimensional ratio
  NAD^+/NADH: 36.61 ± 6.09
5 mg/kg, 7 d post-sTBI
  ADENOSINE: 22.24 ± 16.47 nmol/g w.w.
  ADP: 289.27 ± 38.52 nmol/g w.w.
  ADP-Ribose: 6.76 ± 1.70 nmol/g w.w.
  AMP: 59.50 ± 4.68 nmol/g w.w.
  ASCORBIC ACID: 2195.87 ± 264.45 nmol/g w.w.
  ATP: 1730.92 ± 139.24 nmol/g w.w.
  Acetyl-CoA: 22.87 ± 3.89 nmol/g w.w.
  CDP choline: 10.37 ± 3.33 nmol/g w.w.
  CMP: 55.67 ± 22.97 nmol/g w.w.
  CREATININE: 5.48 ± 0.97 nmol/g w.w.
  CTP: 79.08 ± 14.54 nmol/g w.w.
  CYTIDINE: 26.51 ± 9.33 nmol/g w.w.
  CYTOSINE: 12.67 ± 2.72 nmol/g w.w.
  CoA-SH: 51.86 ± 6.66 nmol/g w.w.
  GDP: 126.82 ± 14.49 nmol/g w.w.
  GDP Glucose: 104.76 ± 12.25 nmol/g w.w.
  GMP: 101.42 ± 48.00 nmol/g w.w.
  GSH: 2412.17 ± 317.97 nmol/g w.w.
  GTP: 453.86 ± 41.27 nmol/g w.w.
  GUANINE: 7.92 ± 3.37 nmol/g w.w.
  GUANOSINE: 33.42± 6.96 nmol/g w.w.
  HYPOXANTHINE: 13.45 ± 3.91 nmol/g w.w.
  IMP: 68.72 ± 17.60 nmol/g w.w.
  INOSINE: 196.61 ± 22.06 nmol/g w.w.
  MDA: 17.78 ± 2.94 nmol/g w.w.

From patent US20230346827A1 (priority 2020, published 2023)
